# Source: publication PMC11995724, “Antibiotic target discovery by integrated phenotypic and activity-based profiling of electrophilic fragments” (Cell chemical biology, 2025)
# Experiment: in vitro
# Settings: human, hek293t cells
row,Compound,"viability at 48 h, 25 µM [%]"
1,"N#CC(=CC=Cc1ccccc1[N+](=O)[O-])C(N)=O [8-F19, 2-cyano-5-(2-nitrophenyl)penta-2,4-dienamide]",1.55
2,"O=C(CCl)Nc1cc(C(=O)O)cc(C(=O)O)c1 [4-B04, 5-(2-chloroacetamido)benzene-1,3-dicarboxylic acid]",107
3,"C=CC(=O)NC1CC(C2CCCCC2)C1 (centres unmarked) [1-D10, N-(3-cyclohexylcyclobutyl)prop-2-enamide]",75.7
4,"CCC(C)c1ccccc1NC(=O)CCl (centres unmarked) [6-K11, N-[2-(butan-2-yl)phenyl]-2-chloroacetamide]",0.743
5,"C=CC(=O)N1CCC[C@H]1C(=O)Nc1cccc(C)n1 [1-B10, (2S)-N-(6-methylpyridin-2-yl)-1-(prop-2-enoyl)pyrrolidine-2-carboxamide]",77.1
6,"O=C(CCl)N(c1ccccc1)C1CCCCC1 [4-L18, 2-chloro-N-cyclohexyl-N-phenylacetamide]",0.523
7,"CC(NC(=O)C(C#N)=Cc1cnn(C)c1)c1ccccc1 (centres unmarked) [8-N10, 2-cyano-3-(1-methyl-1H-pyrazol-4-yl)-N-(1-phenylethyl)prop-2-enamide]",97
8,"CCc1cccc(NC(=O)CCl)c1 [4-F04, 2-chloro-N-(3-ethylphenyl)acetamide]",0.569
9,"CCc1ccc(NC(=O)C(C#N)=Cc2ccn(-c3ccccc3)n2)cc1 [8-K22, 2-cyano-N-(4-ethylphenyl)-3-(1-phenyl-1H-pyrazol-3-yl)prop-2-enamide]",36.8
10,"C=CC(=O)NCCCn1cnc2ccccc21 [2-P11, N-[3-(1H-1,3-benzodiazol-1-yl)propyl]prop-2-enamide]",62
11,"N#CC(=Cc1cccc2nccn12)C(=O)Nc1ccccc1 [9-M05, 2-cyano-3-{imidazo[1,2-a]pyridin-5-yl}-N-phenylprop-2-enamide]",125
12,"C=CC(=O)NC(C)c1nnnn1C (centres unmarked) [3-A15, N-[1-(1-methyl-1H-1,2,3,4-tetrazol-5-yl)ethyl]prop-2-enamide]",23.9
13,"COCc1nnc([C@]23CC[C@H]2CCN3C(=O)C(C)Cl)o1 (mixture of isomers) [5-H15, rac-2-chloro-1-[(1R,5R)-1-[5-(methoxymethyl)-1,3,4-oxadiazol-2-yl]-2-azabicyclo[3.2.0]heptan-2-yl]propan-1-one]",108
14,"CC(Cl)C(=O)Nc1ccccc1Sc1ccccc1 (centres unmarked) [6-H10, 2-chloro-N-[2-(phenylsulfanyl)phenyl]propanamide]",116
15,"C=CC(=O)N1CCN(Cc2nc(C(C)C)no2)CC1 [3-G11, 1-(4-{[3-(propan-2-yl)-1,2,4-oxadiazol-5-yl]methyl}piperazin-1-yl)prop-2-en-1-one]",55.2
16,"CN1C(=C(C#N)C(=O)CCl)N(C)c2ccccc21 [10-P18, 4-chloro-2-(1,3-dimethyl-2,3-dihydro-1H-1,3-benzodiazol-2-ylidene)-3-oxobutanenitrile]",89.4
17,"C=CC(=O)N1CCC(C(=O)N2CCC(CC(=O)N(C)C)CC2)CC1 [2-H09, N,N-dimethyl-2-{1-[1-(prop-2-enoyl)piperidine-4-carbonyl]piperidin-4-yl}acetamide]",61.5
18,"Cc1ccccc1CC(C)NC(=O)CCl (centres unmarked) [6-C06, 2-chloro-N-[1-(2-methylphenyl)propan-2-yl]acetamide]",75.4
19,"CC(Cl)C(=O)NC1CC(=O)N(Cc2ccccc2C(F)(F)F)C1 (centres unmarked) [6-J19, 2-chloro-N-(5-oxo-1-{[2-(trifluoromethyl)phenyl]methyl}pyrrolidin-3-yl)propanamide]",108

row,Compound,"viability at 48 h, 25 µM [%]"
1,"O=C(CCl)N(Cc1ccccc1)Cc1cc2n(n1)CCCC2 [5-L03, N-benzyl-2-chloro-N-({4H,5H,6H,7H-pyrazolo[1,5-a]pyridin-2-yl}methyl)acetamide]",0.904
2,"Cn1cc(NC(=O)CCl)c(C(=O)NC2CCC2)n1 [5-A22, 4-(2-chloroacetamido)-N-cyclobutyl-1-methyl-1H-pyrazole-3-carboxamide]",2.84
3,"N#Cc1ccccc1NC(=O)CCl [5-P04, 2-chloro-N-(2-cyanophenyl)acetamide]",0.525
4,"C=CC(=O)Nc1cnn(-c2ccccc2)c1C(F)F [3-I03, N-[5-(difluoromethyl)-1-phenyl-1H-pyrazol-4-yl]prop-2-enamide]",41.7
5,"C=CC(=O)N1Cc2cnn(C)c2C1 [3-P14, 1-{1-methyl-1H,4H,5H,6H-pyrrolo[3,4-c]pyrazol-5-yl}prop-2-en-1-one]",87.3
6,"C=CC(=O)N[C@H]1C[C@H](C)S(=O)(=O)c2sccc21 [3-C14, N-[(2S,4S)-2-methyl-1,1-dioxo-2H,3H,4H-1lambda6-thieno[2,3-b]thiopyran-4-yl]prop-2-enamide]",84.1
7,"CC(NC(=O)C(C#N)=Cc1cccc(F)c1)c1ccccc1 (centres unmarked) [8-L18, 2-cyano-3-(3-fluorophenyl)-N-(1-phenylethyl)prop-2-enamide]",34.6
8,"CC(Cl)C(=O)N[C@H]1C[C@H](C)S(=O)(=O)c2sccc21 (stereo partly drawn) [6-B22, 2-chloro-N-[(2S,4S)-2-methyl-1,1-dioxo-2H,3H,4H-1lambda6-thieno[2,3-b]thiopyran-4-yl]propanamide]",92.4
9,"COc1ccc(C(=O)CCl)cc1Cl [10-D10, 2-chloro-1-(3-chloro-4-methoxyphenyl)ethan-1-one]",1.84
10,"COc1ccccc1NC(=O)c1ccc(NC(=O)C(C)Cl)cc1 (centres unmarked) [5-C17, 4-(2-chloropropanamido)-N-(2-methoxyphenyl)benzamide]",58
11,"C=CC(=O)NC1Cc2ccccc2C1=O (centres unmarked) [1-H21, N-(1-oxo-2,3-dihydro-1H-inden-2-yl)prop-2-enamide]",156
12,"CC1CCN(C(=O)CCl)c2cc(Cl)ccc2S1 (centres unmarked) [4-G16, 2-chloro-1-(7-chloro-2-methyl-2,3,4,5-tetrahydro-1,5-benzothiazepin-5-yl)ethan-1-one]",0.484
13,"Cc1cc(C=C(C#N)C(=O)NCc2ccco2)cc(C)c1O [8-J16, 2-cyano-N-[(furan-2-yl)methyl]-3-(4-hydroxy-3,5-dimethylphenyl)prop-2-enamide]",114
14,"C=CC(=O)N(CC)CC(=O)N1CCCC(N2CCCS2(=O)=O)C1 (centres unmarked) [3-I08, N-{2-[3-(1,1-dioxo-1lambda6,2-thiazolidin-2-yl)piperidin-1-yl]-2-oxoethyl}-N-ethylprop-2-enamide]",91.2
15,"CC(=O)c1cccc(S(=O)(=O)N2CCN(C(=O)CCl)CC2)c1 [4-F05, 1-[4-(3-acetylbenzenesulfonyl)piperazin-1-yl]-2-chloroethan-1-one]",0.228
16,"N#CC(=Cc1cccc([N+](=O)[O-])c1)C(=O)NCc1ccccc1 [8-B22, N-benzyl-2-cyano-3-(3-nitrophenyl)prop-2-enamide]",32
17,"O=C(CCl)NCc1cccc(NC(=O)C2CC2)c1 [4-D22, N-{3-[(2-chloroacetamido)methyl]phenyl}cyclopropanecarboxamide]",1.24
18,"C=CC(=O)N(Cc1ccccc1)C1CCOc2ccc(OC)cc21 (centres unmarked) [1-O17, N-benzyl-N-(6-methoxy-3,4-dihydro-2H-1-benzopyran-4-yl)prop-2-enamide]",71.6
19,"N#CC(=Cc1ccc(Cl)c([N+](=O)[O-])c1)C(=O)NCc1ccco1 [9-E15, 3-(4-chloro-3-nitrophenyl)-2-cyano-N-[(furan-2-yl)methyl]prop-2-enamide]",6.64
